We go through one molecule from patent US20260226417A1, “METHOD FOR INHIBITING AGING OF STEM CELLS” (ENCELL CO., LTD, priority 2023, published 2026).

The subject of series [1] is senescence markers P16 and P21. Put plainly: qRT-PCR of senescence markers P16 and P21 in replicative senescence model (P18). It is filed as cell-based, human. The settings on record: 160 μM, 3 days. As to the method: In order to verify the anti-senescence efficacy of nervonic acid, the expression levels of senescence-related markers in a control group (P5) and a replicative senescence model (P18) were measured after treatment with nervonic acid (160 μM).
(§1) Specifically, qRT-PCR performed in this example is as follows: after treating the replicative senescence model (P18) with nervonic acid for 3 days, total RNA was extracted using Trizol (Invitrogen, MA, USA) according to the method provided by the vendor. After quantifying the extracted total RNA, random hexamer and dNTP were added, and PCR was performed at 65° C. for 5 minutes. 5× SSIV buffer, 100 mM DTT, RNAse OUT, and Superscript IV RT were added and reverse transcription was performed to synthesize cDNA, and then qRT-PCR was performed to measure gene expression, and the expression levels were compared through 2^−ΔΔCt analysis.
For orientation: Quantitative PCR measures a nucleic acid by following its amplification.

The test system of series [2] is control cells (P5), human umbilical cord-derived mesenchymal stem cells. Briefly: Cell proliferation by CCK-8 assay, 6 days, control cells (P5). In kind it is cell-based. The following applies: 160 μM. As for the experimental part: Example 4. Validation of gut microbiota-derived metabolite candidate for senescence control Control cells (P5) and replicative senescence-induced human umbilical cord-derived mesenchymal stem cells (P18) were treated with nervonic acid (160 μM) to analyze the effects of the gut microbiota-derived metabolite having the ability to control senescence of stem cells on the proliferation of stem cells and cell size.
Specifically, control cells (p5) and replicative senescence-induced human umbilical cord-derived mesenchymal stem cells (P18) were exposed to nervonic acid (160 μM) in culture medium, followed by culture for 6 days while replacing the medium every 3 days, and cell proliferation was assessed using CCK-8 assay.
(Tetrazolium dyes change colour on reduction, which living cells bring about.)

Series [3] deals with Annexin V, an apoptosis marker, in muscle tissue. Briefly: Annexin V immunohistochemical staining in muscle tissue of muscle disease mouse model after injection of treated P18 cells. In kind it is in vivo. The settings on record: P18 cells treated with 160 μM for 72 hours, 5×10^4 cells per mouse via tail vein, one week after injection. As to the method: A replicative senescence model (P18) was treated with nervonic acid (160 μM) and then injected into a muscle disease mouse model to assess the effect of nervonic acid treatment on the therapeutic efficacy of the replicative senescence model (P18) in terms of reducing apoptosis in muscle tissue.
Specifically, the muscle disease mouse model used was C57BL/10ScSn-Dmdmdx/J (mdx mouse) , and C57BL/10J with the same genetic background was used as a control group. All experiments were conducted using mice aged 4 to 5 months. The cells to be injected were human umbilical cord-derived young mesenchymal stem cells (control group) (P5) and replicative senescence model (P18). […]
In order to assess the extent of apoptosis in the muscle tissue of a muscle disease mouse model after injecting mesenchymal stem cells for each condition, the extent of apoptosis in the tissue was determined through immunohistochemical staining for Annexin V, an apoptosis marker. […] Then, the secondary antibody (fluorescence-labeled polymer anti-rabbit) was added and incubated for […] followed by mounting, DAPI staining, washing, and then observation and photography under a fluorescence microscope.

In series [4] the test system is SASP markers IL-6, MMP3, IGFBP3, IGFBP5, IGFBP7. Briefly: qRT-PCR of SASP markers at P10 after treatment at each passage. In kind it is cell-based, human. The following applies: 160 μM for 24 hours at each passage. As for the experimental part:
as §1
(§2) Example 8. Confirmation Of anti-senescence efficacy by treating various human tissue-derived mesenchymal stem cells with nervonic acid Human-derived mesenchymal stem cells were treated with nervonic acid (160 μM) at each passage during cell culture from control cells (P5) to P10 to determine whether continuous treatment with nervonic acid during cell culture at early passage numbers was able to delay cellular senescence.
(§3) Specifically, from the day after human-derived mesenchymal stem cells were subcultured, treatment with 160 μM nervonic acid or an equivalent amount of DMSO (control) for 24 hours was performed, followed by replacement with the existing culture medium the next day. The above process was repeated to perform subculture up to P10 (passage 10). As such, B galactosidase staining for measuring cellular senescence was performed at P7, P8, P9, and P10, and cell doubling time and RNA extraction for qRT-PCR were both performed at P10. A more specific procedure therefor was carried out in the same manner as described above.

Series [5] concerns human-derived mesenchymal stem cells, control cells (P5) subcultured to P10. Put plainly: β-galactosidase staining during serial subculture P5 to P10 with treatment at each passage. It is filed as cell-based. The settings on record: 160 μM for 24 hours at each passage. As for the experimental part:
as §2, §3

Series [6] concerns mesenchymal stem cell-positive markers CD44, CD73, CD90, CD105, CD166 and negative markers CD11b, CD14, CD19, CD34, CD45, HLA-DR. Briefly: Stemness analysis by FACS in replicative senescence model (P18). It is filed as cell-based, human. The settings on record: 160 μM, 3 days. As to the method: Example 6. Comparative analysis of stemness of gut microbiota-derived metabolite for senescence control A replicative senescence model (P18) was treated with nervonic acid (160 μM) to assess the effect thereof on stemness and adipogenesis.
The replicative senescence model (P18) was treated with nervonic acid (160 μM), and the expression changes of the mesenchymal stem cell-positive markers CD44, CD73, CD90, CD105, and CD166, as well as the mesenchymal stem cell-negative markers CD11b, CD14, CD19, CD34, CD45, and HLA-DR were confirmed through FACS.
Specifically, 3.6×10^6 cells treated with nervonic acid (160 μM) for 3 days were centrifuged, suspended in 1.2 ml of FACS buffer (PBS 98%+FBS 2%), and allowed to stand at room temperature for 30 minutes. Thereafter, 100 ul thereof was dispensed into each of 11 1.5 ml tubes (3×10^5 cells per tube), and a predetermined amount of antibody was added to each tube, followed by reaction at room temperature for 20 minutes in a light-blocking state. After washing by adding 200 μl of FACS buffer, centrifugation was performed at room temperature at 300 g for 5 minutes, the supernatant was removed, and the cells were suspended in 500 μl of FACS buffer and then transferred to a FACS tube for analysis.
(In general: A flow cytometer gives signals particle by particle.)

Series [7] concerns control cells (P5), human umbilical cord-derived mesenchymal stem cells. Briefly: Cytotoxicity by CCK-8 assay, control cells (P5). The settings on record: 160 μM. It is filed as cell-based.

Turning to `CCCCCCCC/C=C\CCCCCCCCCCCCCC(=O)O` [nervonic acid], in series [1], the “P16 mRNA level, fold compared to before treatment” value is reported as 0.78±0.01 fold and the “P21 mRNA level, fold compared to before treatment” value is reported as 0.82±0.02 fold. In series [2], the cell proliferation entry was “no change in proliferation”. Also, the “Annexin V expression level (immunohistochemical staining) compared to mdx control group” value in series [3] is recorded as “significantly reduced”. Besides, in series [4], the “IGFBP3 mRNA expression, fold compared to control group (DMSO)” value was 0.77±0.03 fold; the “IGFBP5 mRNA expression, fold compared to control group (DMSO)” value was 0.80±0.03 fold; the “IGFBP7 mRNA expression, fold compared to control group (DMSO)” value is on record as 0.91±0.03 fold; the “IL-6 mRNA expression, fold compared to control group (DMSO)” value is given as 0.77±0.03 fold. In addition, the “MMP3 mRNA expression, fold compared to control group (DMSO)” value in series [4] is 0.65±0.07 fold. Moreover, the “extent of senescence (β-galactosidase staining), fold compared to DMSO control at P10” value in series [5] came out at 0.40±0.07 fold. In addition, in series [6], the “expression of CD11b, a mesenchymal stem cell-negative marker” value is “decreased”; the “expression of mesenchymal stem cell-positive markers CD44, CD73, CD90, CD105, and CD166” value is “restored”. Besides, the “change in cell viability” value in series [7] is listed as “no change in cell viability”.
